Calls of active or inactive are those of the source. The rule behind the calls is not given here.
Test system: GENE-TOX genotoxicity assays, various organisms and cells
Assay: GENE-TOX mutagenicity studies
Excerpt: GENE-TOX provides genetic toxicology (mutagenicity) test data from expert peer review of open scientific literature for more than 3,000 chemicals from the United States Environmental Protection Agency (EPA). GENE-TOX was established to select assay systems for evaluation, review data in the scientific literature, and recommend proper testing protocols and evaluation procedures for these systems.
GENE-TOX covers the years 1991 - 1998. It is no longer updated.
This is an archive assay for GENE-TOX mutagenicity studies.

[1] = Species/Cell Type: Mammalian polychromatic erythrocytes, Assay Type: Micronucleus test, chromosome aberrations, Assay Code: MNT+, Evaluation Type: Evaluation B (Post-1980)
[2] = Species/Cell Type: Mammalian polychromatic erythrocytes, Assay Type: Micronucleus test, chromosome aberrations, Assay Code: MNTT, Evaluation Type: Evaluation B (Post-1980)
[3] = Species/Cell Type: Human, Assay Type: Sister-chromatid exchange (SCE) in vitro, Assay Code: SC1+, Evaluation Type: Evaluation B (Post-1980)
[4] = Species/Cell Type: Salmonella typhimurium (one or more of the five standard strains: TA98, TA100, TA1535, TA1537, and TA1538), Assay Type: Histidine reverse gene mutation, Ames assay, Assay Code: SALT, Evaluation Type: Evaluation A (Pre-1980)

For `CCS(=O)CCSP(=O)(OC)OC` (stereo not given), the mutagenic call (Species/Cell Type: Drosophila melanogaster, Assay Type: Sex-linked recessive lethal gene mutation, Assay Code: SRLT, Evaluation Type: Evaluation A (Pre-1980)) was “no conclusion”, the mutagenic call (Species/Cell Type: Human lymphocytes, Assay Type: Sister-chromatid exchange (SCE) in vitro, Assay Code: SCL+D, Dose Response: With dose response, Evaluation Type: Evaluation B (Post-1980)) was “active; positive” and the mutagenic call (Species/Cell Type: Human, Assay Type: Sister-chromatid exchange (SCE) in vitro, Assay Code: SC1+D, Dose Response: With dose response, Evaluation Type: Evaluation B (Post-1980)) was “active; positive”. The mutagenic call [1] was “active; positive”, the mutagenic call (Species/Cell Type: Nonhuman, Assay Type: Sister-chromatid exchange (SCE) in vitro, Assay Code: SC2+D, Dose Response: With dose response, Evaluation Type: Evaluation B (Post-1980)) was “active; positive” and the mutagenic call (Species/Cell Type: Saccharomyces cerevisiae, Assay Type: Mitotic recombination or gene conversion, Assay Code: YEC+, Evaluation Type: Evaluation A (Pre-1980)) was “active; positive”.
In the case of `c1ccc2nc3ccccc3cc2c1`, the mutagenic call (Species/Cell Type: Saccharomyces cerevisiae, Assay Type: Forward gene mutation, Assay Code: YEFT, Evaluation Type: Evaluation A (Pre-1980)) is reported as “no conclusion”.
`COCCOC(=O)c1ccccc1C(=O)OCCOC` was tested, and the mutagenic call (Species/Cell Type: Rodents, Sex: Male, Assay Type: Dominant lethal test, Assay Code: DLTT, Evaluation Type: Evaluation A (Pre-1980)) was “no conclusion”.
`O=NN(CCO)CCO` was tested, and the mutagenic call [2] was “no conclusion” and the call (Species/Cell Type: Nonhuman, Assay Type: In vivo carcinogenicity studies, Assay Code: CCG+, Evaluation Type: Evaluation A (Pre-1980)) was “active; positive”.
`Cc1c2occc2cc2c1oc(=O)c1cnccc12` was tested, and the mutagenic call [3] was “active; positive”.
In the case of `C=C(C)c1ccccc1`, the mutagenic call (Species/Cell Type: Human lymphocytes, Assay Type: Sister-chromatid exchange (SCE) in vitro, Assay Code: SCL+, Evaluation Type: Evaluation B (Post-1980)) is reported as “active; positive” and the mutagenic call [3] is reported as “active; positive”.
In the case of `CCN(CC)CCCNC(=O)N/N=C/c1ccc([N+](=O)[O-])o1`, the mutagenic call (Species/Cell Type: Escherichia coli WP2 UVRA, Assay Type: Tryptophan reverse gene mutation, Assay Code: WPU+, Evaluation Type: Evaluation A (Pre-1980)) is reported as “active; positive”.
In the case of `CCCCCCCCCCCCCC(=O)O[C@@H]1[C@@H](C)[C@@]2(O)[C@@H](C=C(CO)C[C@]3(OC)C(=O)C(C)=C[C@@H]23)[C@@H]2C(C)(C)[C@]12OC(C)=O`, the mutagenic call (Species/Cell Type: Nonhuman, Assay Type: Sister-chromatid exchange (SCE) in vitro, Assay Code: SC2-, Evaluation Type: Evaluation A (Pre-1980)) is reported as “inactive; negative” and the mutagenic call (Species/Cell Type: Nonhuman, Assay Type: Sister-chromatid exchange (SCE) in vitro, Assay Code: SC2T, Evaluation Type: Evaluation B (Post-1980)) is reported as “no conclusion”.
For `Cn1c[n+](C)cc1[N+](=O)[O-]`, the mutagenic call [4] was “no conclusion”.
For `O=C1NC(=O)C(c2ccccc2)(c2ccccc2)N1`, the mutagenic call (Species/Cell Type: Human lymphocytes, Assay Type: Sister-chromatid exchange (SCE) in vivo, Assay Code: SCY+, Evaluation Type: Evaluation B (Post-1980)) was “active; positive”, the mutagenic call (Species/Cell Type: Human, Sex: Male, Assay Type: Sperm morphology, Assay Code: SPHT, Evaluation Type: Evaluation A (Pre-1980)) was “no conclusion” and the mutagenic call [1] was “active; positive”. For the same compound, the mutagenic call [2] was “no conclusion” and the mutagenic call (Species/Cell Type: Nonhuman, Assay Type: Sister-chromatid exchange (SCE) in vivo, Assay Code: SC3+, Evaluation Type: Evaluation B (Post-1980)) was “active; positive”.
In the case of `C[C@@H]1O[C@@H](OC[C@H]2O[C@@H](Oc3c(-c4ccc(OCCO)c(OCCO)c4)oc4cc(OCCO)cc(O)c4c3=O)[C@H](O)[C@@H](O)[C@@H]2O)[C@H](O)[C@H](O)[C@H]1O`, the mutagenic call (Species/Cell Type: Mammalian polychromatic erythrocytes, Assay Type: Micronucleus test, chromosome aberrations, Assay Code: MNT-, Evaluation Type: Evaluation B (Post-1980)) is reported as “inactive; negative”.
For `CCCCN(N=O)C(CCC)OC(C)=O` (stereo not given), the mutagenic call (Species/Cell Type: Salmonella typhimurium (one or more of the five standard strains: TA98, TA100, TA1535, TA1537, and TA1538), Assay Type: Histidine reverse gene mutation, Ames assay, Assay Code: SAL+, Evaluation Type: Evaluation A (Pre-1980)) was “active; positive”.
With `Nc1nc(-c2ccc([N+](=O)[O-])[nH]2)cs1` the mutagenic call [4] was “no conclusion”.

Source: PubChem BioAssay AID1259408 (Genetic Toxicology Data Bank (GENE-TOX), 2018)
